Common to all, as to assay type: cell-based
For assay [1], the target named is T1, human OCTN1 (Homo sapiens, UniProt Q9H015, I306T/L503F).
T1 construct: cDNA containing the entire ORF which was cleaved out with SmaI and EcoRI was integrated; expressed in transfected cells; host or cells: Xenopus oocytes injected with 15 ng cRNA transcribed in vitro from pcDNA3/OCTN1
T1 sequence (Q9H015 1-551 I306T/L503F): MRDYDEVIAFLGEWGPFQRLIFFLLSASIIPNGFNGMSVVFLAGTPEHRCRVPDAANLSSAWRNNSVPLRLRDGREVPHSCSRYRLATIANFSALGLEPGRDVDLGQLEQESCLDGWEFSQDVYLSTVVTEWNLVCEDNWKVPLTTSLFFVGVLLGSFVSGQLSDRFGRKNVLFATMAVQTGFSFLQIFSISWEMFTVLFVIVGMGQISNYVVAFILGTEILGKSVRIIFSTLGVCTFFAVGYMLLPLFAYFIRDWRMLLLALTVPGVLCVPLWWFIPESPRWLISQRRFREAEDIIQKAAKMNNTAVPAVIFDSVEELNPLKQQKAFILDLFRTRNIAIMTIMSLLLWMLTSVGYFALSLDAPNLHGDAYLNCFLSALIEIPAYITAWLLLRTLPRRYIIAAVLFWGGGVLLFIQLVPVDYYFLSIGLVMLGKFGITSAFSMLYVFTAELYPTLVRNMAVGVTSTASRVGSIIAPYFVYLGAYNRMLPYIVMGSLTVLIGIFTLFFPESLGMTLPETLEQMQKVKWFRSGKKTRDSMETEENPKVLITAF
Put plainly: Transport experiment in HEK293 cells transfected with human OCTN1 (pcDNA3/OCTN1). The conditions noted are these: for uptake of labeled substrate into human OCTN1-transfected cells: HEK293 cells, compared with Mock or untreated cells, 37° C. As to the method: The human fetal-kidney-derived cell strain, HEK 293 cells were transfected with the plasmid pcDNA3/OCTN1 and pcDNA3 vector containing no insert as a control by the calcium phosphate method. First, the plasmid DNA (10 μg), a Hepes buffer solution (137 mM NaCl, 5 mM KCl, 0.7 mM Na2HPO4, 6 mM Dextrose, and 21 mM Hepes pH 7.1) (1 ml), and 2 M CaCl2 (62.5 μl) were combined and allowed to stand at room temperature for 30 min or more to form calcium phosphate coprecipitates. After cells were plated on 10-cm plates at 1.5×10^6 cells per plate and cultured for 24 h, the calcium phosphate coprecipitates were added thereto, and the cells were further cultured for 24 h. Then, plates were washed with phosphate buffered saline (PBS), and the cells were further cultured for 24 h after the addition of fresh culture medium.
(§1) Transport experiment was performed using cells transfected with the plasmid DNA or untreated cells according to the following procedures. Cells were detached from plates using a rubber policeman, suspended in a transport buffer (containing 125 mM NaCl, 4.8 mM KCl, 5.6 mM (+)-glucose, 1.2 mM CaCl2, 1.2 mM KH2PO4, 1.2 mM MgSO4, and 25 mM Hepes pH 7.4), and pre-incubated for 20 min. An appropriate amount of each labeled substrate ([^14C]TEA (tetraethylammonium) (NEN), [^3H]carnitine (L-carnitine hydrochloride) (Amersham), [^3H]PCG (benzylpenicillin) (Amersham), [^3H]quinidine (ARC), or [^3H]pyrilamine (mepyramine) (Amersham)) was then added to the cell suspension, and the resulting mixture was incubated at 37° C. for a predetermined period of time. Incubated cells were overlaid on a silicon layer prepared by layering a mixture of silicon oil and liquid paraffin (specific gravity 1.022) on a 3 M KCl layer, and separated by centrifugation. Radioactivity of cells was measured to determine the into-the-cell transport activity. In this case, 1×10^6 cells were used as one point of cells. HEK 293 cells were cultured in Dulbecco's MEM containing 10% fetal calf serum (FCS) in an atmosphere of 5% carbon dioxide at 37° C.
First, the transporter capacity was measured in the cells transfected with pcDNA3/OCTN1 and untreated cells using TEA as a substrate (FIG. 5). […] Next, effects of the addition of unlabeled TEA on the labeled substrate uptake in this system (cold inhibition) was examined (FIG. 6). […] Next, to obtain the Km (Michaelis constant) value of human OCTNL to TEA, the uptake of ^14C-TEA with various concentrations was measured (FIG. 7). […] Next, the transport capacity of human OCTN1 for other substrate than TEA was examined (FIG. 8).

Assay [2] has as its target T1, human OCTN1. Briefly: Transport experiment using Xenopus oocytes injected with human OCTN1 cRNA. The conditions noted are these: 25° C., 1 h, compared with water-injected oocytes. As to the method:
cRNA was synthesized in vitro using T7 RNA polymerase with pcDNA3/OCTN1 as a template. This cRNA was diluted to the concentration of 0.3 ng/nl, and its 50-nl (15 ng) aliquot was injected into a single oocyte. As a control, 50 nl of distilled water was injected. These oocytes were cultured for 3 days, and then used for the transport experiment. After being preincubated in an uptake buffer (0.05% Tween 80, 100 mM NaCl, 2 mM KCl, 1 mM CaCl2, 1 mM MgCl2, and 10 mM Hepes pH 7.4) at 25° C. for 20 min, the oocytes were transferred to the uptake buffer containing 0.5 ml of labeled substrate to initiate the uptake. After the incubation at 25° C. for 1 h, the oocytes were washed in the ice-cold uptake buffer three times to terminate the reaction. The oocytes were solubilized in 5% SDS and mixed with Cleasol I (a cocktail for liquid scintillation counter) (3 ml) to determine the radioactivity. The radioactivity of the uptake buffer which contained the labeled compound at the time of incubation (external solution) (10 μl) was also similarly measured. The ratio of the radioactivity (dpm value) in the oocytes to that (dpm value) in the external solution was used as the uptake activity.

The target in another assay is T2, human OCTN2 (Homo sapiens, UniProt O76082).
T2 construct: clones from both fragments were ligated at the PstI site in the overlapping region; expressed in transfected cells
T2 sequence (O76082 1-557): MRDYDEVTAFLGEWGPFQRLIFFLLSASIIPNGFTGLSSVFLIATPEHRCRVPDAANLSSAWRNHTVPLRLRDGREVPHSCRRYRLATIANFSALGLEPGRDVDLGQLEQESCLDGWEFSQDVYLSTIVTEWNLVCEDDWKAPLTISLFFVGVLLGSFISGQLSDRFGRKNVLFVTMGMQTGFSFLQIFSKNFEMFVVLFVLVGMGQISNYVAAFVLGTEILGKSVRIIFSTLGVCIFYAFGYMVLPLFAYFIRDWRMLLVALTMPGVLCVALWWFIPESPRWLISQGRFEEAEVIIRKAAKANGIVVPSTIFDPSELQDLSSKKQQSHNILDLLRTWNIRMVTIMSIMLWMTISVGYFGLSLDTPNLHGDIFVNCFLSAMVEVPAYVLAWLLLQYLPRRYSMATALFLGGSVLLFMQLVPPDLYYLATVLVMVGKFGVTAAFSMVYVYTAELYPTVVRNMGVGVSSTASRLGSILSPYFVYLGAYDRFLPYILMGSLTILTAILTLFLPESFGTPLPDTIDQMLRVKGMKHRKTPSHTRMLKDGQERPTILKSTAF
Put plainly: Transport experiment in HEK cells transfected with human OCTN2 (pcDNA3/OCTN2). The conditions noted are these: for transport by human OCTN2: HEK cells transfected with pcDNA3/OCTN2, compared with Mock and pcDNA3/OCTN1. As to the method: as §1
HEK cells were transfected with pcDNA3/OCTN2, the pcDNA3 vector containing no insert (Mock), or pcDNA3/OCTN1 by the method described in Example 6 to perform transport experiments.
Next, Na^+ dependence of human OCTN2-mediated carnitine transport was examined using a transport buffer in which Na^+ was replaced with K+(FIG. 12).

A word on the Km: it is the concentration of substrate that gives half-maximal velocity.

Starred links: 1 amine or outer side, 2 acyl side, 3 side chain; linkers in the order of their positions; H or OH if unused. Positions of bridges follow the written chain, without caps; N, C: chain ends. Non-standard residues stand in square brackets, D forms with d. Residues, ends and D or L forms follow the SMILES beside them. Chains are numbered I, II in the order given. Actinocin(9to1) = Cc1c2oc3c(C)ccc(C(=O)[*:1])c3nc-2c(C(=O)[*:2])c(N)c1=O; NMeV = CN[C@H](C(=O)O)C(C)C; Sar = CNCC(=O)O

As for `CC1(C)S[C@@H]2[C@H](NC(=O)Cc3ccccc3)C(=O)N2[C@H]1C(=O)O` [PCG, benzylpenicillin], the “uptake of labeled substrate into human OCTN1-transfected cells” value on human OCTN1 [1] was “no significant increase in the uptake”.

`CC[N+](CC)(CC)CC` [TEA, tetraethylammonium]: the “uptake of labeled substrate into human OCTN1-transfected cells” value at human OCTN1 [1] is “reaction time-dependent TEA uptake into the human OCTN1-transfectd cells was clearly observed”. The “transport by human OCTN1 (comparison with OCTN2)” value at human OCTN1 [1] (HEK cells transfected with pcDNA3/OCTN1, Example 8) was “efficiently transported by human OCTN1”. In addition, on human OCTN1 [1] (Lineweaver-Burk plot of net uptake (OCTN1-transfected minus Mock HEK293 cells), 14C-TEA), the “maximal velocity, Vmax” value turned out to be 6.68±0.34 nmol/3 min/mg. The Km at human OCTN1 [1] (Lineweaver-Burk plot of net uptake (OCTN1-transfected minus Mock HEK293 cells), 14C-TEA, read-out: Km (Michaelis constant) value of human OCTN1 to TEA) amounted to 440 ± 40 µM. Also, the “effect of unlabeled (cold) TEA on labeled substrate uptake (cold inhibition)” value at human OCTN1 [1] (human OCTN1-transfected HEK293 cells) is given as “decrease in the apparent uptake of the labeled substrate was clearly seen depending on the concentration of cold TEA added”. Further, the “uptake activity / transport capacity of human OCTN1 cRNA-injected oocytes” value (shortened to “uptake activity / transport capacity”) at human OCTN1 [2] was “expresses the transport capacity”. The “transport by human OCTN2” value at human OCTN2 is given as “hardly transported”.

As for `Cc1c2oc3c(C)ccc(C(=O)N[C@@H]4C(=O)N[C@H](C(C)C)C(=O)N5CCC[C@H]5C(=O)N(C)CC(=O)N(C)[C@@H](C(C)C)C(=O)O[C@@H]4C)c3nc-2c(C(=O)N[C@@H]2C(=O)N[C@H](C(C)C)C(=O)N3CCC[C@H]3C(=O)N(C)CC(=O)N(C)[C@@H](C(C)C)C(=O)O[C@@H]2C)c(N)c1=O` [actinomycin D] (I: T[dV]P[Sar][NMeV] / II: T[dV]P[Sar][NMeV]; ester I:1-I:C, II:1-II:C; linker I:N-II:N via Actinocin(9to1)), on human OCTN1 [2], the “uptake activity / transport capacity” value is “has the activity to transport”.

Take `C[N+](C)(C)C[C@H](O)CC(=O)[O-].Cl` [carnitine, L-carnitine hydrochloride]: the “uptake of labeled substrate into human OCTN1-transfected cells” value on human OCTN1 [1] is given as “significant increase in the uptake”. Besides, the “uptake activity / transport capacity” value on human OCTN1 [2] is “expresses the transport capacity”. Moreover, the “transport by human OCTN2” value on human OCTN2 is reported as “high capacity to efficiently transport”. The “carnitine transport activity of human OCTN2 in the absence of Na+” value on human OCTN2 (absence of Na+) is “no such activity”. Besides, the “carnitine transport activity of human OCTN2 in the presence of Na+” value on human OCTN2 (presence of Na+) is “time-dependent carnitine transport activity”. On human OCTN2 (transport buffer in which Na+ was replaced with K+), the “Na+ dependence of human OCTN2-mediated carnitine transport” value was “completely depended on the presence of Na^+”.

In the case of `COc1cccc2c1C(=O)c1c(O)c3c(c(O)c1C2=O)C[C@@](O)(C(C)=O)C[C@@H]3O[C@H]1C[C@H](N)[C@H](O)[C@H](C)O1` [daunomycin], the “uptake activity / transport capacity” value at human OCTN1 [2] is “has the activity to transport”.

With `COc1cc([C@@H]2c3cc4c(cc3[C@@H](O[C@@H]3O[C@@H]5CO[C@@H](C)O[C@H]5[C@H](O)[C@H]3O)[C@H]3COC(=O)[C@H]23)OCO4)cc(OC)c1O` [etoposide], the “uptake activity / transport capacity” value on human OCTN1 [2] is “has the activity to transport”.

Turning to `COc1ccc(CN(CCN(C)C)c2ccccn2)cc1` [pyrilamine], the “uptake of labeled substrate into human OCTN1-transfected cells” value on human OCTN1 [1] is given as “significant increase in the uptake”. Further, the “uptake activity / transport capacity” value on human OCTN1 [2] is recorded as “expresses the transport capacity”.

In the case of `C=C[C@H]1C[N@@]2CC[C@H]1C[C@@H]2[C@@H](O)c1ccnc2ccc(OC)cc12` [quinidine], the “uptake of labeled substrate into human OCTN1-transfected cells” value at human OCTN1 [1] is reported as “significant increase in the uptake”. In addition, the “uptake activity / transport capacity” value at human OCTN1 [2] is given as “expresses the transport capacity”.

On to `CC[C@]1(O)C[C@@H]2CN(CCc3c([nH]c4ccccc34)[C@@](C(=O)OC)(c3cc4c(cc3OC)N(C)[C@H]3[C@@](O)(C(=O)OC)[C@H](OC(C)=O)[C@]5(CC)C=CCN6CC[C@]43[C@@H]65)C2)C1` [vinblastine], for which, at human OCTN1 [2], the “uptake activity / transport capacity” value was “has the activity to transport”.
